Experimental findings from US20100298285A1, “Biclycloheteroaryl Compounds as P2x7 Modulators and Uses Thereof” (priority 2006, published 2010) are described below.

pIC50: −log10 of the molar value.

The term pIC50 denotes the IC50 on a negative log10 scale, so that one unit is a factor of ten.

This assay has as its system IL-1β release, THP-1 cells. Briefly: IL-1β release assay in differentiated THP-1 cells stimulated with BzATP (Example 9). Format: cell-based. To be noted: Homo sapiens; THP-1 cells, BzATP 250 uM, four parameter logistic fit. In short, it runs like this: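 THP-1 cells differentiated 16 h with 100 ng/mL LPS + 100 ng/mL IFN-γ, re-primed 2 h with fresh LPS 100 ng/mL, pretreated 30 min with compound, then stimulated with BzATP 250 uM final for 45 min. Supernatant IL-1β by ELISA; background-adjusted % inhibition, IC50 from four-parameter logistic fit.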
`Cc1ccc2c(c1NC(=O)Cc1ccc(C(F)(F)F)c(F)c1)CCN(S(=O)(=O)c1ccccc1F)C2` [Compound 3460] gave a negative-log IC50 (pIC50) of 7.38.
The figure for `Cc1ccc2c(c1NC(=O)Cc1ccc(C(F)(F)F)c(F)c1)CCN(C(=O)C1(O)CC1)C2` [Compound 3468] is 7.16.
The figure for `Cc1ccc2c(c1NC(=O)Cc1ccc(C(F)(F)F)c(F)c1)CCN(C(=O)C1CC1)C2` [Compound 3469] is 7.28; for `Cc1ccc2c(c1NC(=O)Cc1ccc(C(F)(F)F)c(F)c1)CCN(C(=O)C(C)(C)O)C2` [Compound 3470] it is 7.49; for `Cc1ccc2c(c1NC(=O)Cc1ccc(C(F)(F)F)c(F)c1)CCN(C(=O)C1(C)CC1)C2` [Compound 3471] it is 6.58.
`Cc1ccc2c(c1NC(=O)Cc1ccc(C(F)(F)F)c(F)c1)CCN(C(=O)C(C)(C)CO)C2` [Compound 3472] gave a negative logarithm of the IC50 (pIC50) of 6.69. This pIC50 and that of the compound before are within 0.2 log units of each other.
`Cc1ccc2c(c1NC(=O)Cc1ccc(C(F)(F)F)c(F)c1)CCN(C(=O)C1CCC1)C2` [Compound 3473] gave a negative-log IC50 (pIC50) of 7.62.
`COc1ccc2c(c1NC(=O)Cc1ccc(C(F)(F)F)c(F)c1)CCN(C(=O)C(C)(C)C)C2` [Compound 3474, N-[2-(2,2-Dimethyl-propionyl)-6-methoxy-1,2,3,4-tetrahydro-isoquinolin-5-yl]-2-(3-fluoro-4-trifluoromethyl-phenyl)-acetamide] gave a negative logarithm of the IC50 (pIC50) of 6.70.
The figure for `COc1ccc2c(c1NC(=O)Cc1ccc(C(F)(F)F)c(F)c1)CCN(C(=O)C1CC1)C2` [Compound 3475] is 6.61; for `COc1ccc2c(c1NC(=O)Cc1ccc(C(F)(F)F)c(F)c1)CCN(C(=O)C1(O)CC1)C2` [Compound 3476, 2-(3-Fluoro-4-trifluoromethyl-phenyl)-N-[2-(1-hydroxy-cyclopropanecarbonyl)-6-methoxy-1,2,3,4-tetrahydro-isoquinolin-5-yl]-acetamide] it is 6.49.
`COc1ccc2c(c1NC(=O)Cc1ccc(C(F)(F)F)c(F)c1)CCN(C(=O)C1(O)CCCCC1)C2` [Compound 3477, 2-(3-Fluoro-4-trifluoromethyl-phenyl)-N-[2-(1-hydroxy-cyclohexanecarbonyl)-6-methoxy-1,2,3,4-tetrahydro-isoquinolin-5-yl]-acetamide] had a pIC50 of 6.55.
Take `COc1ccc2c(c1NC(=O)Cc1ccc(C(F)(F)F)c(F)c1)CCN(C(=O)CC1(O)CCCC(C)(C)C1)C2` (stereo not shown) [Compound 3478, 2-(3-Fluoro-4-trifluoromethyl-phenyl)-N-{2-[2-(1-hydroxy-3,3-dimethyl-cyclohexyl)-acetyl]-6-methoxy-1,2,3,4-tetrahydro-isoquinolin-5-yl}-acetamide]: the pIC50 was 6.72.
Compound `COc1ccc2c(c1NC(=O)Cc1ccc(C(F)(F)F)c(F)c1)CCN(C(=O)C(C)(C)CO)C2` [Compound 3479, 2-(3-Fluoro-4-trifluoromethyl-phenyl)-N-[2-(3-hydroxy-2,2-dimethyl-propionyl)-6-methoxy-1,2,3,4-tetrahydro-isoquinolin-5-yl]-acetamide] gave a negative logarithm of the IC50 (pIC50) of 6.77.
`Cc1ccc2c(c1NC(=O)Cc1ccc(C(F)(F)F)c(F)c1)CCN(C(=O)[C@H]1CCN1)C2` [Compound 3480] showed a pIC50 of 7.13.
To `COc1ccc2c(c1NC(=O)Cc1ccc(C(F)(F)F)c(F)c1)CCN(C(=O)C(C)(C)O)C2` [Compound 3481] belongs 6.03.
The compound `CC(C)(C)C(=O)N1CCc2c(ccc(C3CC3)c2NC(=O)Cc2ccc(C(F)(F)F)c(F)c2)C1` [Compound 3482] showed a negative-log IC50 (pIC50) of 6.78.
